Test results as given in ChEMBL document CHEMBL1126821, “A systematic evaluation of the inhibition of HIV-1 protease by its C- and N-terminal peptides” (Bioorg Med Chem Lett, 1993).
Residues, ends and D or L forms follow the SMILES beside them.

The molecules below were run against Human immunodeficiency virus type 1 protease (Human immunodeficiency virus 1) (UniProt Q72874) (assay: Inhibitory activity against HIV-1 protease at 100 uM).
Molecule CC[C@H](C)[C@H](NC(=O)[C@H](CCC(N)=O)NC(=O)[C@@H]1CCCN1)C(=O)N[C@H](C(=O)N[C@@H](CC(C)C)C(=O)O)[C@@H](C)O (H-PQITL-OH) has an inhibition of 5.6%. In the case of CC(=O)N[C@@H](CO)C(=O)N[C@H](C(=O)N[C@@H](CC(C)C)C(=O)N[C@@H](CC(N)=O)C(=O)N[C@@H](Cc1ccccc1)C(=O)O)[C@@H](C)O (Ac-STLNF-OH), the inhibition is reported as 37.2%. In the case of CC(=O)N[C@H](C(=O)N[C@@H](CC(C)C)C(=O)N[C@@H](CC(N)=O)C(=O)N[C@@H](Cc1ccccc1)C(=O)O)[C@@H](C)O (Ac-TLNF-OH), the inhibition is reported as 3.9%. For CC[C@H](C)[C@H](NC(=O)[C@H](CCC(N)=O)NC(=O)[C@@H]1CCCN1)C(=O)N[C@H](C(=O)N[C@@H](CC(C)C)C(=O)N[C@@H](Cc1c[nH]c2ccccc12)C(=O)N[C@@H](CCC(N)=O)C(=O)O)[C@@H](C)O (H-PQITLWQ-OH), the inhibition was 1.3%. For CC[C@H](C)[C@H](NC(=O)[C@H](CCC(N)=O)NC(=O)[C@@H]1CCCN1C(C)=O)C(=O)N[C@H](C(=O)N[C@@H](CC(C)C)C(=O)O)[C@@H](C)O (Ac-PQITL-OH), the inhibition was -1.4%. CC[C@H](C)[C@H](NC(C)=O)C(=O)NCC(=O)N[C@@H](CO)C(=O)N[C@H](C(=O)N[C@@H](CC(C)C)C(=O)N[C@@H](CC(N)=O)C(=O)N[C@@H](Cc1ccccc1)C(=O)O)[C@@H](C)O (Ac-IGSTLNF-OH) was tested, and the inhibition was 12.6%. CC[C@H](C)[C@H](NC(=O)[C@H](CCC(N)=O)NC(=O)[C@@H]1CCCN1C(C)=O)C(=O)N[C@H](C(=O)N[C@@H](CC(C)C)C(=O)N[C@@H](Cc1c[nH]c2ccccc12)C(=O)O)[C@@H](C)O (Ac-PQITLW-OH) showed an inhibition of 28.1%. CC[C@H](C)[C@H](NC(=O)[C@H](CCC(N)=O)NC(=O)[C@@H]1CCCN1)C(=O)N[C@H](C(=O)N[C@@H](CC(C)C)C(=O)N[C@@H](Cc1c[nH]c2ccccc12)C(=O)O)[C@@H](C)O (H-PQITLW-OH) showed an inhibition of 39.9%. CC[C@H](C)[C@H](NC(=O)[C@H](CCC(N)=O)NC(=O)[C@@H]1CCCN1C(C)=O)C(=O)N[C@H](C(=O)N[C@@H](CC(C)C)C(=O)N[C@@H](Cc1c[nH]c2ccccc12)C(=O)N[C@@H](CCC(N)=O)C(=O)O)[C@@H](C)O (Ac-PQITLWQ-OH) gave an inhibition of 26%. Molecule CC(=O)NCC(=O)N[C@@H](CO)C(=O)N[C@H](C(=O)N[C@@H](CC(C)C)C(=O)N[C@@H](CC(N)=O)C(=O)N[C@@H](Cc1ccccc1)C(=O)O)[C@@H](C)O (Ac-GSTLNF-OH) has an inhibition of 4.6%. CC[C@H](C)[C@H](NC(=O)[C@H](CCC(N)=O)NC(C)=O)C(=O)NCC(=O)N[C@@H](CO)C(=O)N[C@H](C(=O)N[C@@H](CC(C)C)C(=O)N[C@@H](CC(N)=O)C(=O)N[C@@H](Cc1ccccc1)C(=O)O)[C@@H](C)O (Ac-QIGSTLNF-OH) was tested, and the inhibition was 34.6%.
